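Tested at 5 concentrations; 48 h exposure; 96-well plates; endpoints linearly interpolated, else capped at highest concentration. TGI: total growth inhibition.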
Legend:
Experiment in all cases: NCI-60 cell line screen, 48 h
786-0 renal = test system: 786-0 renal
A498 renal = test system: A498 renal
A549 NSCLC = test system: A549 NSCLC
ACHN renal = test system: ACHN renal
CAKI-1 renal = test system: CAKI-1 renal
CCRF-CEM leukemia = test system: CCRF-CEM leukemia
COLO 205 colon = test system: COLO 205 colon
DMS 114 small cell lung = test system: DMS 114 small cell lung
DMS 273 small cell lung = test system: DMS 273 small cell lung
HCC-2998 colon = test system: HCC-2998 colon
HCT-116 colon = test system: HCT-116 colon
HCT-15 colon = test system: HCT-15 colon
HL-60(TB) leukemia = test system: HL-60(TB) leukemia
HOP-62 NSCLC = test system: HOP-62 NSCLC
HOP-92 NSCLC = test system: HOP-92 NSCLC
HT29 colon = test system: HT29 colon
IGROV1 ovarian = test system: IGROV1 ovarian
K-562 leukemia = test system: K-562 leukemia
KM12 colon = test system: KM12 colon
KM20L2 colon = test system: KM20L2 colon
LOX IMVI melanoma = test system: LOX IMVI melanoma
LXFL 529 NSCLC = test system: LXFL 529 NSCLC
M14 melanoma = test system: M14 melanoma
M19-MEL melanoma = test system: M19-MEL melanoma
MALME-3M melanoma = test system: MALME-3M melanoma
MOLT-4 leukemia = test system: MOLT-4 leukemia
NCI-H226 lung = test system: NCI-H226 lung
NCI-H23 lung = test system: NCI-H23 lung
NCI-H460 lung = test system: NCI-H460 lung
NCI-H522 lung = test system: NCI-H522 lung
OVCAR-3 ovarian = test system: OVCAR-3 ovarian
OVCAR-4 ovarian = test system: OVCAR-4 ovarian
OVCAR-5 ovarian = test system: OVCAR-5 ovarian
OVCAR-8 ovarian = test system: OVCAR-8 ovarian
RPMI-8226 leukemia = test system: RPMI-8226 leukemia
RXF 393 renal = test system: RXF 393 renal
RXF-631 renal = test system: RXF-631 renal
SF-268 CNS = test system: SF-268 CNS
SF-295 CNS = test system: SF-295 CNS
SF-539 CNS = test system: SF-539 CNS
SK-MEL-2 melanoma = test system: SK-MEL-2 melanoma
SK-MEL-28 melanoma = test system: SK-MEL-28 melanoma
SK-MEL-5 melanoma = test system: SK-MEL-5 melanoma
SK-OV-3 ovarian = test system: SK-OV-3 ovarian
SN12C renal = test system: SN12C renal
SNB-19 CNS = test system: SNB-19 CNS
SNB-75 CNS = test system: SNB-75 CNS
SNB-78 CNS = test system: SNB-78 CNS
SW-620 colon = test system: SW-620 colon
TK-10 renal = test system: TK-10 renal
U251 CNS = test system: U251 CNS
UACC-257 melanoma = test system: UACC-257 melanoma
UACC-62 melanoma = test system: UACC-62 melanoma
UO-31 renal = test system: UO-31 renal
XF 498 CNS = test system: XF 498 CNS

Measured: TGI

O=C(CCc1nc(=S)[nH][nH]1)Nc1cc(Cl)c(Cl)cc1Cl
> 100 µM: all assays above
